≈ marks a conversion by molar mass, not a printed value.
Assays:
[1] = tested on: mouse leukemia L1210 cells; test: Inhibition of proliferation of cultured mouse leukemia L1210 cells; assay type: cell-based
Protocol: (§1) L 1210 cells of 5×10^4 /ml were inoculated on, e.g., RPM 11640 medium (Rosewellberg Research Laboratories) containing 20% bovine serum and, the substances of the present invention were added thereto, respectively, in a concentration of 0.02 to 0.25 μg/ml in a similar fashion. Cultivation was performed at 37° C. in a carbon dioxide culture bottle. Then, a 50% inhibitory action against proliferation was determined based on control fraction. Further, the aforesaid L 1210 culture cell was suspended in 10% bovine serum-containing RPM 11640 medium in a concentration of 5×10^5 /ml. After cultivating at 37° C. for 1 to 2 hours in a carbon dioxide culture bottle, the substance was added in various concentrations and, ^14 C-uridine (0.05 μCi/ml) or ^14 C-thymidine (0.05 μCi/ml) was further added thereto 15 minutes after followed by culturing at 37° C. for 60 minutes. A cold 10% trichloro-acetic acid was added to the reaction solution to discontinue the reaction and at the same time, matters insoluble in the acid were precipitated. After washing further twice with cold 5% trichloroacetic acid, the insoluble matters were dissolved in formic acid and, radioactivity was measured. A 50% intake inhibitory concentration was determined from an intake rate of radioactivity, based on the control fraction to which no substance was added.

[2] = tested on: mouse leukemia L1210 cells; test: Inhibition of DNA synthesis in L1210 culture cells (14C-thymidine intake); assay type: cell-based; details: read-out: 50% Inhibitory Concentration (IC50), Inhibition of DNA Synthesis
Protocol: as §1

[3] = tested on: mouse leukemia L1210 cells; test: Inhibition of RNA synthesis in L1210 culture cells (14C-uridine intake); assay type: cell-based; details: read-out: 50% Inhibitory Concentration (IC50), Inhibition of RNA Synthesis
Protocol: as §1

[4] = tested on: mouse L1210 leukemia; test: In vivo anti-tumor activity against mouse L1210 leukemia; details: day 1 to day 10, CDF1 mice, n = 6
Source text: Inoculation: 1 × 10^5 cell/mouse (i.p.)
Treatment: day 1 to day 10 (i.p.)

[5] = L1210 cells 5×10^4/ml, 20% bovine serum, 37° C., read-out: 50% Inhibitory Concentration (IC50), Inhibition of Cell Proliferation
[6] = 1 h, L1210 cells 5×10^5/ml, 10% bovine serum, 14C-thymidine, 60 minutes, 37° C.
[7] = 1 h, L1210 cells 5×10^5/ml, 10% bovine serum, 14C-uridine, 60 minutes, 37° C.

| Structure (SMILES) | IC50 [1, 5] [µg/mL] | IC50 [2, 6] [µg/mL] | IC50 [3, 7] [µg/mL] | other results |
| --- | --- | --- | --- | --- |
| CCC1(O)CC(OC2CC(N)C(O)C(C)O2)c2c(O)c3c(c(O)c2C1C(=O)OC)C(=O)c1cccc(O)c1C3=O (stereo not shown) [D788-6] | – | – | – | IC50 ([1]; L1210, read-out: 50% Inhibitory Concentration (IC50), Inhibition of Cell Proliferation): 0.25 µg/mL (≈ 0.448 µM); IC50 ([2]; L1210, 1 h): 2.6 µg/mL (≈ 4.66 µM); IC50 ([3]; L1210, 1 h): 1.3 µg/mL (≈ 2.33 µM) |
| COC(=O)C1c2c(O)c3c(c(O)c2C(OC2CC(N)C(O)C(C)O2)CC1(O)C(C)=O)C(=O)c1c(O)cccc1C3=O (stereo not shown) [D788-9] | 0.22 (≈ 0.385 µM) | 4.2 (≈ 7.35 µM) | 2.59 (≈ 4.53 µM) | – |

Continued, in another order:

| IC50 [1, 5] [µg/mL] | IC50 [2, 6] [µg/mL] | IC50 [3, 7] [µg/mL] | Structure (SMILES) | other results |
| --- | --- | --- | --- | --- |
| 0.0003 (≈ 0.000582 µM) | 0.29 (≈ 0.563 µM) | 0.68 (≈ 1.32 µM) | CCC1(O)CC(OC2CC(N)C(O)C(C)O2)c2c(O)c3c(c(O)c2C1O)C(=O)c1cccc(O)c1C3=O (stereo not shown) [D788-7] | Anti-tumor Effect T/C(%) ([4]; 4 μg/kg/day i.p.): 102%; Anti-tumor Effect T/C(%) ([4]; 8 μg/kg/day i.p.): 104%; Anti-tumor Effect T/C(%) ([4]; 16 μg/kg/day i.p.): 133%; Anti-tumor Effect T/C(%) ([4]; 32 μg/kg/day i.p.): 187%; Anti-tumor Effect T/C(%) ([4]; 62.5 μg/kg/day i.p.): 204%; Anti-tumor Effect T/C(%) ([4]; 125 μg/kg/day i.p.): 172%; Anti-tumor Effect T/C(%) ([4]; 250 μg/kg/day i.p.): 100% |
| 0.22 (≈ 0.442 µM) | 3.4 (≈ 6.83 µM) | 1.58 (≈ 3.18 µM) | CC(O)C1=Cc2c(O)c3c(c(O)c2[C@@H](O[C@H]2C[C@H](N)[C@H](O)[C@H](C)O2)C1)C(=O)c1c(O)cccc1C3=O (stereo partly shown) [D788-8] | – |
| 0.083 (≈ 0.148 µM) | 10 (≈ 17.9 µM) | 10 (≈ 17.9 µM) | CC1OC(OC2CC(O)(C(C)O)C(C(=O)O)c3c(O)c4c(c(O)c32)C(=O)c2c(O)cccc2C4=O)CC(N)C1O (stereo not shown) [D788-10] | – |

From patent US4612371A, “Anthracycline antibiotics” (Sanraku Incorporated, priority 1984, dated 1986)
